Measurements published in US10245328B2, “Gadolinium complex comprising DO3A-tranexamic acid conjugate” (KYUNGPOOK NATIONAL UNIVERSITY INDUSTRY-ACADEMIC COOPERATION …, priority 2014, dated 2019).

Tests used:
[1] = Isothermal titration calorimeter (ITC), binding of Gd^3+ to ligand; conditions: 25° C., pH = 4.5, read-out: Kd (dissociation constant)
Description: In order to quantify binding isotherms of paramagnetic metal ions Gd^3+ with a ligand solution, an ITC test is executed at a VP-ITC isothermal titration microcalorimeter (Microcal, USA). Data collection, analysis and plotting are executed with help of software package Origin, version 8.0 from Microcal. A sample cell has a 1.43 mL volume. The cell is filled with a water-soluble buffer solution of the above compound 1a-e ligand (0.2 mM). A water-soluble buffer solution of Gd^3+ (1.0 mM) is input into a 300 μL continuous agitated (300 rpm) syringe and 10 μL aliquots thereof is injected into the cell. At a 3-mins interval, the cell is delivered over 20 s. Data points are collected on a 2 s basis. The measurement is executed at 25° C. All titrations are executed three times to secure data consistency and solution stability. These titration isotherms are integrated to find out an enthalpy change at each injection. In order to fit well with two mathematically different sets of site models, the titration isotherms are analyzed. Via a calorie measurement, parameters including a binding constant (Ka), a change in enthalpy (ΔH), a stoichiometry of binding (N) are calculated. Next, a free energy (ΔG) and an entropy change (ΔS) are calculated using a following complexation equation: Mn++nL↔MLn:ΔG=−RT·InKa=ΔH-TΔS,
where, R indicates a universal gas constant; T is Kelvin temperature.

[2] = Relaxation rate measurement (R1, R2) in PBS and in PBS solution of HSA; assay type: physicochemical; conditions: 293K; for R1 / R2: PBS pH 7.4, 64 MHz (1.5 T); for R1 in 0.67 mM HSA / R2 in 0.67 mM HSA: PBS solution of 0.67 mM HSA, 64 MHz
Description: T1 measurement is carried out using an inversion recovery method at 1.5 T (64 MHz) in a variable inverse time (TI). MR images are obtained for 35 different TI values in a range of 50 to 1750 ms. A T1 relaxation time is obtained from a nonlinear least-squares fit of a signal strength measured at each TI value. For a T2 CPMG (Carr-Purcell-Meiboon-Gill) pulse sequence measurement, the measurement is adapted to a multi spin-echo measurement. 34 images are obtained at 34 different echo time (TE) values in a range of 10 to 1900 ms. The T2 relaxation time is obtained from a nonlinear least-squares fit of mean pixel values for multi spin-echo measurement at each echo time. Next, a relaxation rate (R1 and R2) is calculated as an inverse of a relaxation time per mM. The determined relaxation time (T1 and T2) and relaxation rate (R1 and R2) are subjected to an image processing to get a relaxation time map and relaxation rate respectively.
For comparison between the complexes 2a-e, there is no noticeable difference in R1's. The measurement is carried out for two different media, that is, PBS (pH=7.4) and PBS solution of HAS in order to indicate which blood-pool effect is expressed by the complexes 2a-e.

[3] = Stability against hydrolysis in H2O (HPLC, 197 nm); assay type: physicochemical; conditions: 2e in water
Description: The contrast agents of the present series 100 mg are dissolved in distilled water 10 mL and is maintained as they are for 72 hours at 50° C. Using HPLC, O.D. (Optical Density) values are read at 197 nm and the stability of the agents is determined. The substances at each retention time are examined using LC Mass Spectroscopy for accurate identification of decomposed products.

NCCNC(=O)C1CCC(CNC(=O)CN2CCN(CC(=O)O)CCN(CC(=O)O)CCN(CC(=O)O)CC2)CC1 (centres unmarked) [1c]
Kd [1]: 16.8 µM

O=C([O-])CN1CCN(CC(=O)[O-])CCN([C@H](CO)[C@H](O)CO)CCN(CC(=O)[O-])CC1.[Gd+3] (racemic) [Gadovist, Gd-BT-DO3A, reference compound]
R1 [2]: 4.38 ± 0.15 mM⁻¹ s⁻¹
R2 [2]: 4.27 ± 0.30 mM⁻¹ s⁻¹
R1 in 0.67 mM HSA [2]: 4.81 ± 0.17 mM⁻¹ s⁻¹
R2 in 0.67 mM HSA [2]: 5.54 ± 0.24 mM⁻¹ s⁻¹

NC1CCC(NC(=O)CN2CCN(CC(=O)O)CCN(CC(=O)O)CCN(CC(=O)O)CC2)CC1 (centres unmarked) [1d]
Kd [1]: 29.3 µM

O=C([O-])CN1CCN(CC(=O)[O-])CCN(CC(=O)NCC2CCCCC2)CCN(CC(=O)[O-])CC1.[Gd+3] [2e]
R1 [2]: 4.49 ± 0.18 mM⁻¹ s⁻¹
R2 [2]: 4.52 ± 0.28 mM⁻¹ s⁻¹
R1 in 0.67 mM HSA [2]: 5.21 ± 0.23 mM⁻¹ s⁻¹
R2 in 0.67 mM HSA [2]: 6.22 ± 0.28 mM⁻¹ s⁻¹
HPLC peak 2.32 min ([3]; 50° C./3 day): 0.04%
HPLC peak 4.98 min ([3]; 50° C./3 day): 0.07%
HPLC peak 17.21 min, 2e ([3]; 50° C./3 day): 94.66%
HPLC peak 23.70 min, 2e isomer ([3]; 50° C./3 day): 1.57%
HPLC peak 40.63 min ([3]; 50° C./3 day): 0.05%
HPLC peak 42.14 min ([3]; 50° C./3 day): 0.05%
HPLC peak 43.00 min ([3]; 50° C./3 day): 0.05%
HPLC peak 44.95 min ([3]; 50° C./3 day): 0.05%
HPLC peak 45.93 min ([3]; 50° C./3 day): 0.03%
HPLC peak 46.64 min ([3]; 50° C./3 day): 0.01%
HPLC peak 48.46 min ([3]; 50° C./3 day): 0.03%
HPLC peak 49.36 min ([3]; 50° C./3 day): 0.18%
HPLC peak 2.32 min ([3]; initial): 0.04%
HPLC peak 4.98 min ([3]; initial): 0.09%
HPLC peak 17.21 min, 2e ([3]; initial): 94.88%
HPLC peak 23.70 min, 2e isomer ([3]; initial): 1.36%
HPLC peak 40.63 min ([3]; initial): 0.03%
HPLC peak 42.14 min ([3]; initial): 0.01%
HPLC peak 43.00 min ([3]; initial): 0.05%
HPLC peak 44.95 min ([3]; initial): 0.05%
HPLC peak 45.93 min ([3]; initial): 0.04%
HPLC peak 46.64 min ([3]; initial): 0.02%
HPLC peak 48.46 min ([3]; initial): 0.03%
HPLC peak 49.36 min ([3]; initial): 0.18%

O=C(O)CN1CCN(CC(=O)O)CCN(CC(=O)NCC2CCC(C(=O)O)CC2)CCN(CC(=O)O)CC1 (centres unmarked) [1b]
Kd [1]: 3.98 µM
